Calls of active or inactive are those of the source. The calls are words filed in the database; no cut-off is given here. Positions of bridges follow the written chain, without caps; N, C: chain ends. Residues, ends and D or L forms follow the SMILES beside them.

Our source for the EC50 and NA values is ChEMBL document CHEMBL1135930, “Identification of nonpeptidic urotensin II receptor antagonists by virtual screening based on a pharmacophore model derived from structure-activity relationships and nuclear magnetic resonance studies on urotensin II” (J Med Chem, 2002).

In one test the target is T1, Urotensin-2 receptor (Homo sapiens, UniProt Q9UKP6).
T1 sequence (Q9UKP6 whole entry): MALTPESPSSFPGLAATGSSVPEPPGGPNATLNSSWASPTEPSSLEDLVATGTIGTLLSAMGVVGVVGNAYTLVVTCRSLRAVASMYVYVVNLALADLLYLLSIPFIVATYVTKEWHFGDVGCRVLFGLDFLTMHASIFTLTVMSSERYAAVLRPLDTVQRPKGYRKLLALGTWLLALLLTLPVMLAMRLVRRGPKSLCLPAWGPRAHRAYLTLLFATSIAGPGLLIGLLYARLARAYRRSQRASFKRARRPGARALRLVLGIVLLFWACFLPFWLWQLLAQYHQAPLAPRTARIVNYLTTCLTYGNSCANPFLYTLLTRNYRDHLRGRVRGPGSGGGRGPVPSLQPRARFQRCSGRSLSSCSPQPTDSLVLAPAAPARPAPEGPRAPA
Nature of the test: Mobilization of intracellular calcium in CHO cells transiently transfected with human Urotensin 2 receptor. The format is functional, cell-based.
Conditions: not given
On the technique in general: A change in cytosolic calcium serves as a functional read-out for many receptors and channels.
Usually EC50 stands for the concentration that produces a half-maximal response. Turning to `CC(C)[C@H](NC(=O)[C@H](CS)NC(=O)[C@H](Cc1ccc(O)cc1)NC(=O)[C@H](CCCCN)NC(=O)[C@H](Cc1c[nH]c2ccccc12)NC(=O)[C@H](Cc1ccccc1)NC(=O)[C@H](C)NC(=O)[C@H](CC(=O)O)NC(=O)[C@@H]1CCCN1C(=O)[C@@H](NC(=O)[C@@H](N)CCC(=O)O)[C@@H](C)O)C(=O)O`, the EC50 came to 233 nM.
With `CC(C)[C@H](NC(=O)[C@H](CS)NC(=O)[C@H](Cc1ccc(O)cc1)NC(=O)[C@H](CCCCN)NC(=O)[C@H](Cc1c[nH]c2ccccc12)NC(=O)[C@H](Cc1ccccc1)NC(=O)[C@H](CS)NC(=O)[C@H](C)NC(=O)[C@@H]1CCCN1C(=O)[C@@H](NC(=O)[C@@H](N)CCC(=O)O)[C@@H](C)O)C(=O)O`, the EC50 worked out at 2.7 nM.
Same read-out and setting: in the case of `CC(C)[C@H](NC(=O)[C@H](CS)NC(=O)[C@H](Cc1ccc(O)cc1)NC(=O)[C@H](CCCCN)NC(=O)[C@H](Cc1c[nH]c2ccccc12)NC(=O)[C@H](Cc1ccccc1)NC(=O)[C@H](CS)NC(=O)[C@H](CC(=O)O)NC(=O)[C@@H]1CCCN1C(=O)[C@@H](NC(=O)[C@H](C)N)[C@@H](C)O)C(=O)O` it was 1.8 nM; in that of `CC(C)[C@H](NC(=O)[C@H](CS)NC(=O)[C@H](Cc1ccc(O)cc1)NC(=O)[C@H](CCCCN)NC(=O)[C@H](Cc1c[nH]c2ccccc12)NC(=O)[C@H](Cc1ccccc1)NC(=O)[C@H](CS)NC(=O)[C@H](CC(=O)O)NC(=O)[C@@H]1CCCN1C(=O)[C@H](C)NC(=O)[C@@H](N)CCC(=O)O)C(=O)O`, 3.3 nM; in that of `NCCCC[C@H](NC(=O)[C@H](Cc1c[nH]c2ccccc12)NC(=O)[C@H](Cc1ccccc1)NC(=O)[C@@H](N)CS)C(=O)N[C@@H](Cc1ccc(O)cc1)C(=O)N[C@@H](CS)C(N)=O` (H-CFWKYC-NH2), 2.3 nM.
Consider `CC(C)[C@H](NC(=O)[C@H](CS)NC(=O)[C@H](Cc1ccc(O)cc1)NC(=O)[C@H](CCCCN)NC(=O)[C@H](Cc1c[nH]c2ccccc12)NC(=O)[C@H](Cc1ccccc1)NC(=O)[C@@H](N)CS)C(=O)O` (H-CFWKYCV-OH), for which the EC50 came to 1.8 nM.
On the same count and under the same terms, in the case of `CC(C)[C@H](NC(=O)[C@H](CS)NC(=O)[C@H](Cc1ccc(O)cc1)NC(=O)[C@H](CCCCN)NC(=O)[C@H](Cc1c[nH]c2ccccc12)NC(=O)[C@H](Cc1ccccc1)NC(=O)[C@H](CS)NC(=O)[C@@H](N)CC(=O)O)C(=O)O` (H-DCFWKYCV-OH) it was 3 nM.
Regarding `CC(C)[C@H](NC(=O)[C@H](CS)NC(=O)[C@H](Cc1ccc(O)cc1)NC(=O)[C@H](CCCCN)NC(=O)[C@H](Cc1c[nH]c2ccccc12)NC(=O)[C@H](Cc1ccccc1)NC(=O)[C@H](CS)NC(=O)[C@H](CC(=O)O)NC(=O)[C@H](C)NC(=O)[C@@H](NC(=O)[C@@H](N)CCC(=O)O)[C@@H](C)O)C(=O)O` (H-ETADCFWKYCV-OH), the concentration for a half-maximal effect (EC50) turned out to be 1.9 nM.

Still in this test, the particulars now being: cho.
Take `CC(C)[C@H](NC(=O)[C@@H]1CSSC[C@H](NC(=O)[C@H](CC(=O)O)NC(=O)[C@@H]2CCCN2C(=O)[C@@H](NC(=O)[C@@H](N)CCC(=O)O)[C@@H](C)O)C(=O)N[C@@H](C)C(=O)N[C@@H](Cc2c[nH]c3ccccc23)C(=O)N[C@@H](CCCCN)C(=O)N[C@@H](Cc2ccc(O)cc2)C(=O)N1)C(=O)O` (H-ETPDCAWKYCV-OH; disulfide 5-10): the EC50 was determined as 5.7 nM.
For `CC(C)[C@H](NC(=O)[C@@H]1CSSC[C@H](NC(=O)[C@H](CC(=O)O)NC(=O)[C@@H]2CCCN2C(=O)[C@@H](NC(=O)[C@@H](N)CCC(=O)O)[C@@H](C)O)C(=O)N[C@@H](Cc2ccccc2)C(=O)N[C@@H](C)C(=O)N[C@@H](CCCCN)C(=O)N[C@@H](Cc2ccc(O)cc2)C(=O)N1)C(=O)O` (H-ETPDCFAKYCV-OH; disulfide 5-10), the EC50 stood at 1300 nM.
The same measure, in the same setting: in the case of `CC(C)[C@H](NC(=O)[C@@H]1CSSC[C@H](NC(=O)[C@H](CC(=O)O)NC(=O)[C@@H]2CCCN2C(=O)[C@@H](NC(=O)[C@@H](N)CCC(=O)O)[C@@H](C)O)C(=O)N[C@@H](Cc2ccccc2)C(=O)N[C@@H](CCCCN)C(=O)N[C@@H](Cc2ccc(O)cc2)C(=O)N1)C(=O)O` (H-ETPDCFKYCV-OH; disulfide 5-9) it was more than 10000 nM; in that of `CC(C)[C@H](NC(=O)[C@@H]1CSSC[C@H](NC(=O)[C@H](CC(=O)O)NC(=O)[C@@H]2CCCN2C(=O)[C@@H](NC(=O)[C@@H](N)CCC(=O)O)[C@@H](C)O)C(=O)N[C@@H](Cc2ccccc2)C(=O)N[C@@H](Cc2c[nH]c3ccccc23)C(=O)N[C@@H](C)C(=O)N[C@@H](Cc2ccc(O)cc2)C(=O)N1)C(=O)O` (H-ETPDCFWAYCV-OH; disulfide 5-10), 14800 nM; in that of `CC(C)[C@H](NC(=O)[C@@H]1CSSC[C@H](NC(=O)[C@H](CC(=O)O)NC(=O)[C@@H]2CCCN2C(=O)[C@@H](NC(=O)[C@@H](N)CCC(=O)O)[C@@H](C)O)C(=O)N[C@@H](Cc2ccccc2)C(=O)N[C@@H](Cc2c[nH]c3ccccc23)C(=O)N[C@@H](CCCCN)C(=O)N[C@@H](C)C(=O)N1)C(=O)O` (H-ETPDCFWKACV-OH; disulfide 5-10), 193 nM.
The same measure, in the same setting: the same measure for `C[C@@H](O)[C@H](NC(=O)[C@@H](N)CCC(=O)O)C(=O)N1CCC[C@H]1C(=O)N[C@@H](CC(=O)O)C(=O)N[C@H]1CSSC[C@@H](C(=O)O)NC(=O)[C@H](Cc2ccc(O)cc2)NC(=O)[C@H](CCCCN)NC(=O)[C@H](Cc2c[nH]c3ccccc23)NC(=O)[C@H](Cc2ccccc2)NC1=O` (H-ETPDCFWKYC-OH; disulfide 5-10): 1.8 nM; for `C[C@H](NC(=O)[C@@H]1CSSC[C@H](NC(=O)[C@H](CC(=O)O)NC(=O)[C@@H]2CCCN2C(=O)[C@@H](NC(=O)[C@@H](N)CCC(=O)O)[C@@H](C)O)C(=O)N[C@@H](Cc2ccccc2)C(=O)N[C@@H](Cc2c[nH]c3ccccc23)C(=O)N[C@@H](CCCCN)C(=O)N[C@@H](Cc2ccc(O)cc2)C(=O)N1)C(=O)O` (H-ETPDCFWKYCA-OH; disulfide 5-10): 3.2 nM.
Still for that read-out and setting: in the case of `CC(C)[C@H](NC(=O)[C@@H]1CSSC[C@H](NC(=O)[C@H](CC(=O)O)NC(=O)[C@@H]2CCCN2C(=O)[C@@H](NC(=O)[C@@H](N)CCC(=O)O)[C@@H](C)O)C(=O)N[C@@H](Cc2c[nH]c3ccccc23)C(=O)N[C@@H](CCCCN)C(=O)N[C@@H](Cc2ccc(O)cc2)C(=O)N1)C(=O)O` (H-ETPDCWKYCV-OH; disulfide 5-9) it was 53 nM; in that of `CC(C)[C@H](NC(=O)[C@@H]1CSSC[C@H](NC(=O)[C@H](CC(=O)O)NC(=O)[C@@H]2CCCN2)C(=O)N[C@@H](Cc2ccccc2)C(=O)N[C@@H](Cc2c[nH]c3ccccc23)C(=O)N[C@@H](CCCCN)C(=O)N[C@@H](Cc2ccc(O)cc2)C(=O)N1)C(=O)O` (H-PDCFWKYCV-OH; disulfide 3-8), 3.6 nM.
On to `CC(C)[C@H](NC(=O)[C@@H]1CSSC[C@H](NC(=O)[C@H](CC(=O)O)NC(=O)[C@@H]2CCCN2C(=O)[C@@H](N)[C@@H](C)O)C(=O)N[C@@H](Cc2ccccc2)C(=O)N[C@@H](Cc2c[nH]c3ccccc23)C(=O)N[C@@H](CCCCN)C(=O)N[C@@H](Cc2ccc(O)cc2)C(=O)N1)C(=O)O` (H-TPDCFWKYCV-OH; disulfide 4-9), for which the EC50 came out at 2.4 nM.

The next test addresses T2, Urotensin-2 receptor (Homo sapiens) (UniProt Q9UKP6).
T2 sequence (whole entry): T1 sequence (Q9UKP6 whole entry)
Conditions: CHO.
In the case of `CC(C)[C@H](NC(=O)[C@H](CS)NC(=O)[C@@H](Cc1ccc(O)cc1)NC(=O)[C@H](CCCCN)NC(=O)[C@H](Cc1c[nH]c2ccccc12)NC(=O)[C@H](Cc1ccccc1)NC(=O)[C@H](CS)NC(=O)[C@H](CC(=O)O)NC(=O)[C@H]1CCCN1C(=O)[C@@H](NC(=O)[C@@H](N)CCC(=O)O)[C@@H](C)O)C(=O)O`, the NA result was “inactive”.
Turning to `CC(C)[C@H](NC(=O)[C@H](CS)NC(=O)[C@H](CCCCN)NC(=O)[C@H](Cc1c[nH]c2ccccc12)NC(=O)[C@H](Cc1ccccc1)NC(=O)[C@H](CS)NC(=O)[C@H](CC(=O)O)NC(=O)[C@H]1CCCN1C(=O)[C@@H](NC(=O)[C@@H](N)CCC(=O)O)[C@@H](C)O)C(=O)O`, the NA result was “inactive”.
For `CC(C)[C@H](NC(=O)[C@H](CS)NC(=O)[C@H](Cc1ccc(O)cc1)NC(=O)[C@H](Cc1c[nH]c2ccccc12)NC(=O)[C@H](Cc1ccccc1)NC(=O)[C@H](CS)NC(=O)[C@H](CC(=O)O)NC(=O)[C@H]1CCCN1C(=O)[C@@H](NC(=O)[C@@H](N)CCC(=O)O)[C@@H](C)O)C(=O)O`, the NA result was “inactive”.
